Source: PubChem BioAssay AID1259407 (Chemical Carcinogenesis Research Information System (CCRIS), 2018)
The source made the active and inactive calls. The rule behind the calls is not given here.

Tested on: CCRIS mutagenicity, Ames/micronucleus/aberration tests
Experiment: CCRIS mutagenicity studies
[1] = Test System: AMES SALMONELLA TYPHIMURIUM, Strain/Indicator: TA97, Metabolic Activation: NONE, Method: STANDARD PLATE
[2] = Test System: AMES SALMONELLA TYPHIMURIUM, Strain/Indicator: TA97A, Metabolic Activation: NONE, Method: STANDARD PLATE
[3] = Test System: AMES SALMONELLA TYPHIMURIUM, Strain/Indicator: TA97A, Metabolic Activation: RAT, LIVER, S-9, AROCLOR 1254, Method: STANDARD PLATE
[4] = Test System: AMES SALMONELLA TYPHIMURIUM, Strain/Indicator: TA98, Metabolic Activation: NONE, Method: STANDARD PLATE
[5] = Test System: AMES SALMONELLA TYPHIMURIUM, Strain/Indicator: TA102, Metabolic Activation: NONE, Method: STANDARD PLATE
[6] = Test System: AMES SALMONELLA TYPHIMURIUM, Strain/Indicator: TA104, Metabolic Activation: NONE, Method: STANDARD PLATE
[7] = Test System: AMES SALMONELLA TYPHIMURIUM, Strain/Indicator: TA98, Metabolic Activation: RAT, LIVER, S-9, AROCLOR 1254, Method: STANDARD PLATE
[8] = Test System: AMES SALMONELLA TYPHIMURIUM, Strain/Indicator: TA100, Metabolic Activation: NONE, Method: STANDARD PLATE

Compound: CCN(CC)CCCC(C)Nc1ccnc2cc(Cl)ccc12 (stereo not given)
- mutagenic call [1]: active; positive
- mutagenic call [2]: inactive; negative
- mutagenic call (Test System: AMES SALMONELLA TYPHIMURIUM, Strain/Indicator: TA97A, Metabolic Activation: RAT LIVER S-9, PHENOBARBITAL, Method: STANDARD PLATE): inactive; negative
- mutagenic call [3]: inactive; negative
- mutagenic call (Test System: AMES SALMONELLA TYPHIMURIUM, Strain/Indicator: TA98, Metabolic Activation: NONE, Method: PREINCUBATION): inactive; negative
- mutagenic call [4]: active; positive
- mutagenic call (Test System: AMES SALMONELLA TYPHIMURIUM, Strain/Indicator: TA98, Metabolic Activation: RAT, LIVER, S-9, AROCLOR 1254 OR PHENOBARBITOL, Method: STANDARD PLATE): active; positive
- mutagenic call (Test System: AMES SALMONELLA TYPHIMURIUM, Strain/Indicator: TA98, Metabolic Activation: RAT, LIVER, S-9, PCB, Method: STANDARD PLATE): inactive; negative
- mutagenic call (Test System: AMES SALMONELLA TYPHIMURIUM, Strain/Indicator: TA98, Metabolic Activation: RAT, LIVER, S-9, Method: PREINCUBATION): inactive; negative
- mutagenic call (Test System: AMES SALMONELLA TYPHIMURIUM, Strain/Indicator: TA100, Metabolic Activation: NONE, Method: PREINCUBATION): inactive; negative
- mutagenic call (Test System: AMES SALMONELLA TYPHIMURIUM, Strain/Indicator: TA100, Metabolic Activation: RAT LIVER S-9, PHENOBARBITAL, Method: STANDARD PLATE): inactive; negative
- mutagenic call (Test System: AMES SALMONELLA TYPHIMURIUM, Strain/Indicator: TA100, Metabolic Activation: RAT, LIVER, S-9, AROCLOR 1254 OR PHENOBARBITOL, Method: STANDARD PLATE): active; positive
- mutagenic call (Test System: AMES SALMONELLA TYPHIMURIUM, Strain/Indicator: TA100, Metabolic Activation: RAT, LIVER, S-9, PCB, Method: STANDARD PLATE): inactive; negative
- mutagenic call (Test System: AMES SALMONELLA TYPHIMURIUM, Strain/Indicator: TA100, Metabolic Activation: RAT, LIVER, S-9, Method: PREINCUBATION): inactive; negative
- mutagenic call [5]: inactive; negative
- mutagenic call (Test System: AMES SALMONELLA TYPHIMURIUM, Strain/Indicator: TA102, Metabolic Activation: RAT LIVER S-9, PHENOBARBITAL, Method: STANDARD PLATE): inactive; negative
- mutagenic call [6]: inactive; negative
- mutagenic call (Test System: AMES SALMONELLA TYPHIMURIUM, Strain/Indicator: TA104, Metabolic Activation: RAT LIVER S-9, PHENOBARBITAL, Method: STANDARD PLATE): inactive; negative
- mutagenic call (Test System: AMES SALMONELLA TYPHIMURIUM, Strain/Indicator: TA1535, Metabolic Activation: NONE, Method: STANDARD PLATE): inactive; negative
- mutagenic call (Test System: AMES SALMONELLA TYPHIMURIUM, Strain/Indicator: TA1535, Metabolic Activation: RAT, LIVER, S-9, AROCLOR 1254 OR PHENOBARBITOL, Method: STANDARD PLATE): inactive; negative
- mutagenic call (Test System: AMES SALMONELLA TYPHIMURIUM, Strain/Indicator: TA1537, Metabolic Activation: NONE, Method: MICROFLUCTUATION): active; positive
- mutagenic call (Test System: AMES SALMONELLA TYPHIMURIUM, Strain/Indicator: TA1537, Metabolic Activation: NONE, Method: STANDARD PLATE): inactive; negative
- mutagenic call (Test System: AMES SALMONELLA TYPHIMURIUM, Strain/Indicator: TA1537, Metabolic Activation: RAT, LIVER, S-9, AROCLOR 1254, Method: STANDARD PLATE): inactive; negative
- mutagenic call (Test System: AMES SALMONELLA TYPHIMURIUM, Strain/Indicator: TA1537, Metabolic Activation: RAT, LIVER, S-9, AROCLOR 1254 OR PHENOBARBITOL, Method: STANDARD PLATE): inactive; negative
- mutagenic call (Test System: AMES SALMONELLA TYPHIMURIUM, Strain/Indicator: TA1537, Metabolic Activation: RAT, LIVER, S-9, PCB, Method: STANDARD PLATE): inactive; negative
- mutagenic call (Test System: AMES SALMONELLA TYPHIMURIUM, Strain/Indicator: TA1538, Metabolic Activation: NONE, Method: STANDARD PLATE): inactive; negative
- mutagenic call (Test System: AMES SALMONELLA TYPHIMURIUM, Strain/Indicator: TA1538, Metabolic Activation: RAT, LIVER, S-9, AROCLOR OR PHENOBARBITOL, Method: STANDARD PLATE): inactive; negative
- mutagenic call (Test System: AMES SALMONELLA TYPHIMURIUM, Strain/Indicator: TA1538, Metabolic Activation: RAT, LIVER, S-9, PCB, Method: STANDARD PLATE): inactive; negative
- mutagenic call (Test System: AMES SALMONELLA TYPHIMURIUM, Strain/Indicator: TA1977, Metabolic Activation: NONE, Method: MICROFLUCTUATION): inactive; negative
- mutagenic call (Test System: E. COLI, Strain/Indicator: DG1669, Metabolic Activation: NONE, Method: STANDARD PLATE): active; positive
- mutagenic call (Test System: E. COLI, Strain/Indicator: DG1669, Metabolic Activation: RAT, LIVER, S-9, AROCLOR 1254, Method: STANDARD PLATE): active; positive
- mutagenic call (Test System: E. COLI, Strain/Indicator: WP2 UVRA, Metabolic Activation: RAT, LIVER, S-9, PCB, Method: STANDARD PLATE): inactive; negative

Compound: O=[N+]([O-])c1cc2c([nH]c3ccccc32)c([N+](=O)[O-])c1O
- mutagenic call (Test System: AMES SALMONELLA TYPHIMURIUM, Strain/Indicator: TA98(NR), Metabolic Activation: NONE, Method: STANDARD PLATE): active; positive
- mutagenic call (Test System: AMES SALMONELLA TYPHIMURIUM, Strain/Indicator: TA98(NR), Metabolic Activation: RAT, LIVER, S-9, AROCLOR 1254, Method: STANDARD PLATE): active; positive
- mutagenic call [4]: active; positive
- mutagenic call [7]: active; positive

Compound: COc1cccc2c1C(=O)c1c(O)c3c(c(O)c1C2=O)C[C@@](O)(C(C)=NNC(=O)c1ccccc1)C[C@@H]3O[C@H]1C[C@H](N)[C@H](O)[C@H](C)O1
- mutagenic call [1]: inactive; negative
- mutagenic call [4]: active; positive
- mutagenic call [8]: inactive; negative
- mutagenic call [6]: inactive; negative
- mutagenic call (Test System: AMES SALMONELLA TYPHIMURIUM, Strain/Indicator: TA2637, Metabolic Activation: NONE, Method: STANDARD PLATE): active; positive

Compound: Cc1ccc(C)c(C)c1
- mutagenic call [2]: inactive; negative
- mutagenic call [3]: inactive; negative
- mutagenic call [4]: inactive; negative
- mutagenic call [7]: inactive; negative
- mutagenic call [8]: inactive; negative
- mutagenic call (Test System: AMES SALMONELLA TYPHIMURIUM, Strain/Indicator: TA100, Metabolic Activation: RAT, LIVER, S-9, AROCLOR 1254, Method: STANDARD PLATE): inactive; negative
- mutagenic call [5]: inactive; negative
- mutagenic call (Test System: AMES SALMONELLA TYPHIMURIUM, Strain/Indicator: TA102, Metabolic Activation: RAT, LIVER, S-9, AROCLOR 1254, Method: STANDARD PLATE): inactive; negative

Compound: Nc1ncnc2c1ncn2/C=C/C=O
- mutagenic call (Test System: AMES SALMONELLA TYPHIMURIUM, Strain/Indicator: HISD3052, Metabolic Activation: NONE, Method: STANDARD PLATE): active; positive

Compound: CC(C)NCC(O)COc1ccc(CC(N)=O)cc1 (stereo not given)
- mutagenic call (Test System: AMES SALMONELLA TYPHIMURIUM, Strain/Indicator: TA98, Metabolic Activation: NONE): inactive; negative
- mutagenic call (Test System: AMES SALMONELLA TYPHIMURIUM, Strain/Indicator: TA98, Metabolic Activation: RAT, LIVER, S-9, AROCLOR 1254): inactive; negative
- mutagenic call (Test System: AMES SALMONELLA TYPHIMURIUM, Strain/Indicator: TA100, Metabolic Activation: NONE): inactive; negative
- mutagenic call (Test System: AMES SALMONELLA TYPHIMURIUM, Strain/Indicator: TA100, Metabolic Activation: RAT, LIVER, S-9, AROCLOR 1254): inactive; negative
- mutagenic call (Test System: AMES SALMONELLA TYPHIMURIUM, Strain/Indicator: TA1535, Metabolic Activation: NONE): inactive; negative
- mutagenic call (Test System: AMES SALMONELLA TYPHIMURIUM, Strain/Indicator: TA1535, Metabolic Activation: RAT, LIVER, S-9, AROCLOR 1254): inactive; negative
- mutagenic call (Test System: AMES SALMONELLA TYPHIMURIUM, Strain/Indicator: TA1537, Metabolic Activation: NONE): inactive; negative
- mutagenic call (Test System: AMES SALMONELLA TYPHIMURIUM, Strain/Indicator: TA1537, Metabolic Activation: RAT, LIVER, S-9, AROCLOR 1254): inactive; negative
- mutagenic call (Test System: UDS HUMAN HEPATOCYTES, Strain/Indicator: THY INCORP, Metabolic Activation: NONE, Method: AUTORADIOGRAPHY): inactive; negative
- mutagenic call (Test System: UDS RAT HEPATOCYTES, Strain/Indicator: THY INCORP, Metabolic Activation: NONE, Method: AUTORADIOGRAPHY): inactive; negative
